Test results: patent US20110053947A1, “Arylchalcogenoarylalkyl-substituted imidazolidine-2,4-diones, process for preparation thereof, medicaments comprising these compounds and use thereof” (SANOFI-AVENTIS, priority 2008, published 2011)
Structures can show the parent of a compound that is named as a salt. Where two headings read alike, the source gives them in different places.

Tests used:
[1] = molecular target: T1, cannabinoid 1 receptor (hCB1R) (Homo sapiens, UniProt P21554); assay: In vitro functional assay with recombinant cells (FLIPR), CB1; type: cell-based; details: intracellular Ca2+ change after reference agonist, 20 min preincubation
T1 construct: expressed in transfected cells; host or cells: HEK293
Protocol: (§1) In vitro functional assays with recombinant cells:
(§2) Function-testing assays were performed by means of the FLIPR technique (“Fluorometric Imaging Plate Reader”, Molecular Devices Corp.).
(§3) To this end, ligand-induced changes in the intracellular concentration of Ca^2+ in recombinant HEK293 cells, which expressed both a cannabinoid receptor (CB1 or CB2) and G-protein Galphal6, were determined. For the studies, cells were sown into 96-well microtiter plates (60 000 cells/well) and left to grow overnight. The medium was removed and the cells were incubated in buffer which contained the fluorescent dye Fluo-4. After this loading with dye, the cells were washed, test substance was added dissolved in buffer, the mixture was incubated for 20 minutes, a known cannabinoid receptor agonist as a reference agonist was added in buffer and, finally, the changes in the intracellular Ca^2+ concentration were measured in the FLIPR unit.
Results were presented as the percentage change relative to the control (0%: analogous experiment without test substance and without reference agonist, i.e. only with buffer; 100%: analogous experiment without test substance, but with reference agonist in excess), and used to calculate dose/action curves, and IC50 values were determined.
The values of the functional assay compared to the cannabinoid 1 receptor including illustrative selectivities compared to the cannabinoid 2 receptor can be taken from table 1 which follows.

[2] = molecular target: T2, CHO-K1/cannabinoid CB1 (hCB1R) (Homo sapiens, UniProt P21554); assay: Binding to the CB1 receptor ([3H]-SR141716A displacement); details: [3H]-SR141716A 0.5 nM; Ki from IC50 and Kd by Cheng-Prusoff; average of double determination; read-out: hCB1R; Bindung Ki
T2 construct: expressed in transfected cells; host or cells: CHO-K1
Protocol: Binding to the CB 1 Receptor:
Test compounds: The compounds (3 μl, 10 mM, 100% DMSO), pipetted into 96-well PP microtiter plates, were diluted with 27 μl of 100% DMSO (dimethyl sulfoxide). Proceeding from this solution, further 3-fold dilution steps were undertaken by transferring 10 μl in each case to a new PP microtiter plate and adding a further 20 μl of 100% DMSO. In each case 6 μA of these solutions were transferred into new 96-well PP microtiter plates and made up with 144 μl of assay buffer. The end concentrations ranged from 10 μM to 0.005 μM. Negative control: AM 251, dissolved in assay buffer with 1% DMSO, was added to the dilution series in the microtiter plates as a control. The end concentration was 1 μM. Blank control: assay buffer with 1% DMSO was added to the dilution series of the microtiter plates as a blank control.
Summary of the Assay Parameters:
The values were calculated using the corrected raw data.
The values reported were obtained as average values of a double determination. The IC50 values were calculated from the measurements with the program Xlfit, formula 205. Ki values were obtained from the IC50 and Kd values utilizing the Cheng-Prusoff equation: […]
Literature: Cheng, Y.-C., and Prusoff, W. H. (1973) Biochem. Pharmacol 22, 3099-3108 Results: Ki values of example compounds; Table 2: […]

[3] = molecular target: T3, cannabinoid 2 receptor (hCB2R) (Homo sapiens, UniProt P34972); assay: In vitro functional assay with recombinant cells (FLIPR), CB2; type: cell-based; details: recombinant HEK293 cells expressing CB2 and G-protein; intracellular Ca2+ change after reference agonist, 20 min preincubation; read-out: hCB2R: FLIPR; IC50
T3 construct: expressed in transfected cells; host or cells: HEK293
Protocol: as §1, §2, §3

[4] = recombinant HEK293 cells expressing CB1 and G-protein, read-out: hCB1R: FLIPR, IC50
[5] = hCB1R: FLIPR, IC50, recombinant HEK293 cells expressing CB1 and G-protein

T1 sequence (P21554 whole entry): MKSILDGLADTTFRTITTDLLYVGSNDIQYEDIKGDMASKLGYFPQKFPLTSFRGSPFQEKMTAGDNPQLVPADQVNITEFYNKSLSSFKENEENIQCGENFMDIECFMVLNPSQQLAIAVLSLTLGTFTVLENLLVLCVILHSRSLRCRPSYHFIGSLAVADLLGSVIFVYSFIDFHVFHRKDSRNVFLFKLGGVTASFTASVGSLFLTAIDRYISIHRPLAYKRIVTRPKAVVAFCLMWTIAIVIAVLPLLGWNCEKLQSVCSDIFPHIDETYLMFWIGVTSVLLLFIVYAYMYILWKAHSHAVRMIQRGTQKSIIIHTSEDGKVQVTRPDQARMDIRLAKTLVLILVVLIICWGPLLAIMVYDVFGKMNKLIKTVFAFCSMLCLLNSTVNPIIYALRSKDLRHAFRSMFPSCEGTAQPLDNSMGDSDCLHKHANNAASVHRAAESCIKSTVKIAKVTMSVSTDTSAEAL
T2 sequence (P21554 whole entry): as above
T3 sequence (P34972 whole entry): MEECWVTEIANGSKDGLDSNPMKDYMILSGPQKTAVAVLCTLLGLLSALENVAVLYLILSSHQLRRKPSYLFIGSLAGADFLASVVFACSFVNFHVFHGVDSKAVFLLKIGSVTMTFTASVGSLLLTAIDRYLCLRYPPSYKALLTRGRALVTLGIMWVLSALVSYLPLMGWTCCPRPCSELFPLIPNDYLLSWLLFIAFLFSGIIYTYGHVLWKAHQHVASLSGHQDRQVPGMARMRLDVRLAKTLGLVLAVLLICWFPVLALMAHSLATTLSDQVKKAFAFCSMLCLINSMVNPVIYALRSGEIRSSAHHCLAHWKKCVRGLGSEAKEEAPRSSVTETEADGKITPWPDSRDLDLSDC

`CC1(C)C(=O)N(c2ccc(C#N)c(C(F)(F)F)c2)C(=O)N1Cc1ccc(F)cc1NC(=O)Nc1ccnc(O)c1` [Example 43, 1-{2-[3-(4-cyano-3-trifluoromethylphenyl)-5,5-dimethyl-2,4-dioxoimidazolidin-1-ylmethyl]-5-fluorophenyl}-3-(2-hydroxypyridin-4-yl)urea] showed an IC50 [1, 4] of 27 nM and a Ki [2] of 17 nM.

Molecule `COC(=O)CSc1ccc(NC(=O)Nc2cc(F)ccc2CN2C(=O)N(c3ccc(C#N)c(C(F)(F)F)c3)C(=O)C2(C)C)cc1` [Example 49] has an IC50 [1, 4] of 2 nM and a Ki [2] of 11 nM.

`CC1(C)C(=O)N(c2ccc(C#N)c(C(F)(F)F)c2)C(=O)N1Cc1ccc(F)cc1NC(=O)Nc1ccc(C(=O)O)cc1` [Example 18, 4-(3-{2-[3-(4-Cyano-3-trifluoromethylphenyl)-5,5-dimethyl-2,4-dioxoimidazolidin-1-ylmethyl]-5-fluorophenyl}ureido)benzoic acid] was tested, and the Ki [2] was 68 nM.

With `CC1(C)C(=O)N(c2ccc(C#N)c(C(F)(F)F)c2)C(=O)N1Cc1ccccc1NC(=O)Nc1ccc(S(=O)(=O)O)cc1` [Example 2, 4-(3-{2-[3-(4-cyano-3-trifluoromethylphenyl)-5,5-dimethyl-2,4-dioxoimidazolidin-1-ylmethyl]phenyl}ureido)benzenesulfonic acid] the IC50 [1, 4] was 220 nM and the IC50 [3] was greater than 10000 nM.

`CC1(C)C(=O)N(c2ccc(C#N)c(C(F)(F)F)c2)C(=O)N1Cc1ccccc1NC(=O)Nc1ccccc1` [Example 9, 1-{2-[3-(4-cyano-3-trifluoromethylphenyl)-5,5-dimethyl-2,4-dioxoimidazolidin-1-ylmethyl]phenyl}-3-phenylurea] was tested, and the Ki [2] was 32 nM.

`CCS(=O)(=O)c1ccc(NC(=O)Nc2cc(F)ccc2CN2C(=O)N(c3ccc(C#N)c(C4CC4)c3)C(=O)C2(C)C)cc1` [Example 45, 1-{2-[3-(4-Cyano-3-cyclopropylphenyl)-5,5-dimethyl-2,4-dioxoimidazolidin-1-ylmethyl]-5-fluorophenyl}-3-(4-ethanesulfonylphenyl)urea] showed a Ki [2] of 6 nM.

In the case of `CC1(C)C(=O)N(c2ccc(C#N)c(C(F)(F)F)c2)C(=O)N1Cc1ccccc1NC(=O)Nc1cccc(C#N)c1` [Example 8, 1-(3-cyanophenyl)-3-{2-[3-(4-cyano-3-trifluoromethylphenyl)-5,5-dimethyl-2,4-dioxoimidazolidin-1-ylmethyl]phenyl}urea], the IC50 [1, 5] is reported as 35 nM and the IC50 [3] is reported as greater than 10000 nM.

`C[S+]([O-])c1ccc(NC(=O)Nc2ccccc2CN2C(=O)N(c3ccc(C#N)c(C(F)(F)F)c3)C(=O)C2(C)C)cc1` (stereo not shown) [Example 12, 1-{2-[3-(4-cyano-3-trifluoromethylphenyl)-5,5-dimethyl-2,4-dioxoimidazolidin-1-ylmethyl]phenyl}-3-(4-methanesulfinylphenyl)urea] was tested, and the Ki [2] was 11 nM.

`CC1(C)C(=O)N(c2ccc(C#N)c(C(F)(F)F)c2)C(=O)N1Cc1ccccc1NC(=O)Nc1ccc(C(=O)O)cc1` [Example 4, 4-(3-{2-[3-(4-Cyano-3-trifluoromethylphenyl)-5,5-dimethyl-2,4-dioxo-imidazolidin-1-ylmethyl]phenyl}ureido)benzoic acid] was tested, and the IC50 [1, 4] was 109 nM and the IC50 [3] was greater than 10000 nM.

`CCOP(=O)(OCC)c1ccc(NC(=O)Nc2cc(F)ccc2CN2C(=O)N(c3ccc(F)c(C(F)(F)F)c3)C(=O)C2(C)C)cc1` [Example 32, Diethyl [4-(3-{5-fluoro-2-[3-(4-fluoro-3-trifluoromethylphenyl)-5,5-dimethyl-2,4-dioxoimidazolidin-1-ylmethyl]phenyl}ureido)phenyl]phosphonate] was tested, and the Ki [2] was 40 nM.

`CC1(C)C(=O)N(c2ccc(C#N)c(C(F)(F)F)c2)C(=O)N1Cc1ccccc1NC(=O)Nc1ccc(C#N)cc1` [Example 6, 1-(4-cyanophenyl)-3-{2-[3-(4-cyano-3-trifluoromethylphenyl)-5,5-dimethyl-2,4-dioxoimidazolidin-1-ylmethyl]phenyl}urea] was tested, and the IC50 [1, 5] was 11 nM and the IC50 [3] was greater than 10000 nM.

In the case of `CC1(C)C(=O)N(c2ccc(C#N)c(C(F)(F)F)c2)C(=O)N1Cc1ccccc1NC(=O)Nc1ccc(S(C)(=O)=O)cc1` [Example 13, 1-{2-[3-(4-cyano-3-trifluoromethylphenyl)-5,5-dimethyl-2,4-dioxoimidazolidin-1-ylmethyl]phenyl}-3-(4-methanesulfonylphenyl)urea], the Ki [2] is reported as 7 nM.

For `CC1(C)C(=O)N(c2ccc(C#N)c(C(F)(F)F)c2)C(=O)N1Cc1ccccc1NS(=O)(=O)Cc1ccc(F)cc1F` [Example 15, N-{2-[3-(4-cyano-3-trifluoromethylphenyl)-5,5-dimethyl-2,4-dioxoimidazolidin-1-ylmethyl]phenyl}-C-(2,4-difluorophenyl)methanesulfonamide], the Ki [2] was 58 nM.

Work on `COC(=O)CS(=O)(=O)c1ccc(NC(=O)Nc2cc(F)ccc2CN2C(=O)N(c3ccc(C#N)c(C4CC4)c3)C(=O)C2(C)C)cc1` [Example 46, Methyl [4-(3-{2-[3-(4-cyano-3-cyclopropylphenyl)-5,5-dimethyl-2,4-dioxoimidazolidin-1-ylmethyl]-5-fluorophenyl}ureido)benzenesulfonyl]acetate] yielded a Ki [2] of 7 nM.

Molecule `CC1(C)C(=O)N(c2ccc(F)c(C(F)(F)F)c2)C(=O)N1Cc1ccc(F)cc1NC(=O)Nc1ccc(S(N)(=O)=O)cc1` [Example 24, 4-(3-{5-fluoro-2-[3-(4-fluoro-3-trifluoromethylphenyl)-5,5-dimethyl-2,4-dioxoimidazolidin-1-ylmethyl]phenyl}ureido)benzenesulfonamide] has a Ki [2] of 9 nM.

`COC(=O)c1ccc(NC(=O)Nc2cc(F)ccc2CN2C(=O)N(c3ccc(C#N)c(C(F)(F)F)c3)C(=O)C2(C)C)nc1` [Example 42, methyl 6-(3-{2-[3-(4-cyano-3-trifluoromethylphenyl)-5,5-dimethyl-2,4-dioxoimidazolidin-1-ylmethyl]-5-fluorophenyl}ureido)nicotinate] showed a Ki [2] of 35 nM.

`CC1(C)C(=O)N(c2ccc(C#N)c(C(F)(F)F)c2)C(=O)N1Cc1ccc(F)cc1NC(=O)Nc1cc(Cl)nc(Cl)c1` [Example 21, 1-{2-[3-(4-cyano-3-trifluoromethylphenyl)-5,5-dimethyl-2,4-dioxoimidazolidin-1-ylmethyl]-5-fluorophenyl}-3-(2,6-dichloropyridin-4-yl)urea] gave a Ki [2] of 34 nM.

Molecule `COC(=O)c1ccc(NC(=O)Nc2cc(F)ccc2CN2C(=O)N(c3ccc(F)c(C(F)(F)F)c3)C(=O)C2(C)C)cc1` [Example 59, methyl 4-(3-{5-fluoro-2-[3-(4-fluoro-3-trifluoromethylphenyl)-5,5-dimethyl-2,4-dioxoimidazolidin-1-ylmethyl]phenyl}ureido)benzoate] has a Ki [2] of 29 nM.

Work on `CC1(C)C(=O)N(c2ccc(F)c(C(F)(F)F)c2)C(=O)N1Cc1ccc(F)cc1NC(=O)Nc1ccc(N)cc1` [Example 23, 1-(4-Aminophenyl)-3-{5-fluoro-2-[3-(4-fluoro-3-trifluoromethylphenyl)-5,5-dimethyl-2,4-dioxoimidazolidin-1-ylmethyl]phenyl}urea hydrochloride] yielded a Ki [2] of 17 nM.

For `CC1(C)C(=O)N(c2ccc(C#N)c(C(F)(F)F)c2)C(=O)N1Cc1ccccc1NC(=O)Nc1ccc(C(N)=O)cc1` [Example 16, 4-(3-{2-[3-(4-Cyano-3-trifluoromethylphenyl)-5,5-dimethyl-2,4-dioxoimidazolidin-1-ylmethyl]phenyl}ureido)benzamide], the IC50 [1, 4] was 12 nM.

For `CC1(C)C(=O)N(c2ccc(C#N)c(C(F)(F)F)c2)C(=O)N1Cc1ccc(F)cc1NC(=O)Nc1ccc(SCC(=O)O)cc1` [Example 50, [4-(3-{2-[3-(4-Cyano-3-trifluoromethylphenyl)-5,5-dimethyl-2,4-dioxoimidazolidin-1-ylmethyl]-5-fluorophenyl}ureido)phenylsulfanyl]acetic acid], the IC50 [1, 4] was 13 nM.

Work on `CC1(C)C(=O)N(c2ccc(C#N)c(C(F)(F)F)c2)C(=O)N1Cc1ccccc1NC(=O)Nc1ccc(F)cc1F` [Example 7, 1-{2-[3-(4-cyano-3-trifluoromethylphenyl)-5,5-dimethyl-2,4-dioxoimidazolidin-1-ylmethyl]phenyl}-3-(2,4-difluorophenyl)urea] yielded a Ki [2] of 73 nM.
